Experimental data from patent publication EP0407583A1, “DERIVATIVES OF DICHLOR[…] ACYLAMIDO[…] AND INSECTICIDAL, FU[…] HEMATOCIDAL PREPARATIONS BASED ON THEM” (priority 1989, dated 1990).

Assays:
Solubility (qualitative) = settings: water, alcohols, acetone
Fusarium moniliforme [1] = experiment: Inhibition of phytopathogenic fungi, field test on affected potato plants; assay type: in vivo; settings: 5 m^2 plots of affected potato plants sprayed
Text: (§1) For field tests the plots of 5 m^2 in size with potato plants affected by Fusarium moniliforme, Venturia inaequalis, Rhyzoctonia violaceae, Botrytis cinereae, Verticillium albo-atrum, Diplodia zeae, Fusarium oxysporum, Rhoma betae, Rhyzoctonia aderholdii, Aspergillus niger, Alternaria sobani, Botrytis allii, Aspergillus fumigatis, Fusarium culmorum, Penicillium cyclopium were sprayed with the fungicide of the invention. To compare, the similar plots of the affected potato plants were aprayed with the known compositions indicated above.

Diplodia zeae [2] = experiment: as above; assay type: in vivo; settings: 5 m^2 plots of affected potato plants sprayed
Text: as §1

Penicillium cyclopium [3] = experiment: as above; assay type: in vivo; settings: 5 m^2 plots of affected potato plants sprayed
Text: as §1

Rhoma betae [4] = experiment: as above; assay type: in vivo; settings: 5 m^2 plots of affected potato plants sprayed
Text: as §1

Aspergillus niger [5] = experiment: as above; assay type: in vivo; settings: 5 m^2 plots of affected potato plants sprayed
Text: as §1

Botrytis cinereae [6] = experiment: as above; assay type: in vivo; settings: 5 m^2 plots of affected potato plants sprayed
Text: as §1

Aspergillus fumigatis [7] = experiment: as above; assay type: in vivo; settings: 5 m^2 plots of affected potato plants sprayed
Text: as §1

Rhyzoctonia violaceae [8] = experiment: as above; assay type: in vivo; settings: 5 m^2 plots of affected potato plants sprayed
Text: as §1

Botrytis allii [9] = experiment: as above; assay type: in vivo; settings: 5 m^2 plots of affected potato plants sprayed
Text: as §1

Rhyzoctonia aderholdii [10] = experiment: as above; assay type: in vivo; settings: 5 m^2 plots of affected potato plants sprayed
Text: as §1

Verticillium albo-atrum [11] = experiment: as above; assay type: in vivo; settings: 5 m^2 plots of affected potato plants sprayed
Text: as §1

Fusarium oxysporum [12] = experiment: as above; assay type: in vivo; settings: 5 m^2 plots of affected potato plants sprayed
Text: as §1

Venturia inaequalis [13] = experiment: as above; assay type: in vivo; settings: 5 m^2 plots of affected potato plants sprayed
Text: as §1

Fusarium culmorum [14] = experiment: as above; assay type: in vivo; settings: 5 m^2 plots of affected potato plants sprayed
Text: as §1

Alternaria sobani [15] = experiment: as above; assay type: in vivo; settings: 5 m^2 plots of affected potato plants sprayed
Text: as §1

Fusarium moniliforme [16] = experiment: Inhibition of phytopathogenic fungi growth, laboratory test on potato-dextrose agar; assay type: cell-based; settings: active principle 0.01 % by mass in potato-dextrose agar
Description: (§2) A fungicidal composition based on this compound was prepared in the form of a 0.01% solution thereof in distilled water. A fungicidal action of the composition, according to the invention, was tested for inhibition of vegetative fungi growth such as Fusarium moniliforme, Ventura inaequalis, Rhyzoctonia ciolaceae, Botrytis cinereae, Verticillium albo-atrum, Diplodia zeae, Fusarium oxysporum, Rhoma betae, Rhyzoctonia aderholdii, Aspergillus niger, Alternaria sobani, Botrytis allii, Aspergillus fumigatis, Fusarium culmorum, Penicillium cyclopium affecting potato, sugar beet, cotton seeds either in laboratory or field conditions. For testing it to the Petri dishes containing potato-dextrose agar the composition of the invention was.added at the concentration of an active principle of 0.01 % by mass. The Petri dishes containing the same agar culture were inoculated with a mycelium of phytopathogenic fungi. For control dishes the phytopathogenic fungi were inoculated on agar without using the composition of the invention. A fungicidal effect of the composition, according to the invention was tested in comparison with the known fungicidal compositions based on 2,3-dichloro-1,4-naphthoquinone, zinc N,N'-ethylene-bis-dithiocarbamate and tetramethylthiuram disulphide.

Diplodia zeae [17] = experiment: as above; assay type: cell-based; settings: active principle 0.01 % by mass in potato-dextrose agar
Description: as §2

Penicillium cyclopium [18] = experiment: as above; assay type: cell-based; settings: active principle 0.01 % by mass in potato-dextrose agar
Description: as §2

Rhoma betae [19] = experiment: as above; assay type: cell-based; settings: active principle 0.01 % by mass in potato-dextrose agar
Description: as §2

Aspergillus niger [20] = experiment: as above; assay type: cell-based; settings: active principle 0.01 % by mass in potato-dextrose agar
Description: as §2

Botrytis cinereae [21] = experiment: as above; assay type: cell-based; settings: active principle 0.01 % by mass in potato-dextrose agar
Description: as §2

Aspergillus fumigatis [22] = experiment: as above; assay type: cell-based; settings: active principle 0.01 % by mass in potato-dextrose agar
Description: as §2

Rhyzoctonia violaceae [23] = experiment: as above; assay type: cell-based; settings: active principle 0.01 % by mass in potato-dextrose agar
Description: as §2

Botrytis allii [24] = experiment: as above; assay type: cell-based; settings: active principle 0.01 % by mass in potato-dextrose agar
Description: as §2

Rhyzoctonia aderholdii [25] = experiment: as above; assay type: cell-based; settings: active principle 0.01 % by mass in potato-dextrose agar
Description: as §2

Verticillium albo-atrum [26] = experiment: as above; assay type: cell-based; settings: active principle 0.01 % by mass in potato-dextrose agar
Description: as §2

Fusarium oxysporum [27] = experiment: as above; assay type: cell-based; settings: active principle 0.01 % by mass in potato-dextrose agar
Description: as §2

Venturia inaequalis [28] = experiment: as above; assay type: cell-based; settings: active principle 0.01 % by mass in potato-dextrose agar
Description: as §2

Fusarium culmorum [29] = experiment: as above; assay type: cell-based; settings: active principle 0.01 % by mass in potato-dextrose agar
Description: as §2

Alternaria sobani [30] = experiment: as above; assay type: cell-based; settings: active principle 0.01 % by mass in potato-dextrose agar
Description: as §2

| Compound | Inhibition of growth of phytopathogenic fungi colonies, % Fusatium monili-forme test field (Fusarium moniliforme [1]) | Inhibition of growth of phytopathogenic fungi colonies, % Diplodia zeae test field (Diplodia zeae [2]) | Inhibition of growth of phytopathogenic fungi colonies, % Penicillium cyclopium Tests field (Penicillium cyclopium [3]) | Inhibition of growth of phytopathogenic fungi colonies, % Rhoma betae test field (Rhoma betae [4]) | Inhibition of growth of phytopathogenic fungi colonies, % Aspergillus niger test field (Aspergillus niger [5]) | Inhibition of growth of phytopathogenic fungi colonies, % Botrytis cinereae test field (Botrytis cinereae [6]) | Inhibition of growth of phytopathogenic fungi colonies, % Aspergillus fumigatis Tests field (Aspergillus fumigatis [7]) | Inhibition of growth of phytopathogenic fungi colonies, % Rhyzoctonia violaceae test field (Rhyzoctonia violaceae [8]) | Inhibition of growth of phytopathogenic fungi colonies, % Botrytis allii test field (Botrytis allii [9]) | Inhibition of growth of phytopathogenic fungi colonies, % Rhyzoctonia aderholdii test field (Rhyzoctonia aderholdii [10]) | Inhibition of growth of phytopathogenic fungi colonies, % Verticillium albo--atrum test field (Verticillium albo-atrum [11]) | Inhibition of growth of phytopathogenic fungi colonies, % Fusarium oxysporum test field (Fusarium oxysporum [12]) | Inhibition of growth of phytopathogenic fungi colonies, % Venturia inaequalis test field (Venturia inaequalis [13]) | Inhibition of growth of phytopathogenic fungi colonies, % Fusarium culmorum Tests field (Fusarium culmorum [14]) | Inhibition of growth of phytopathogenic fungi colonies, % Alternaria sobani test field (Alternaria sobani [15]) | Inhibition of growth of phytopathogenic fungi colonies, % Fusatium monili-forme test laboratory (Fusarium moniliforme [16]) | Inhibition of growth of phytopathogenic fungi colonies, % Diplodia zeae test laboratory (Diplodia zeae [17]) | Inhibition of growth of phytopathogenic fungi colonies, % Penicillium cyclopium Tests laboratory (Penicillium cyclopium [18]) | Inhibition of growth of phytopathogenic fungi colonies, % Rhoma betae test laboratory (Rhoma betae [19]) | Inhibition of growth of phytopathogenic fungi colonies, % Aspergillus niger test laboratory (Aspergillus niger [20]) | further results |
| --- | --- | --- | --- | --- | --- | --- | --- | --- | --- | --- | --- | --- | --- | --- | --- | --- | --- | --- | --- | --- | --- |
| O=C(NP(=O)(Nc1ccc(Cl)cc1[N+](=O)[O-])Nc1ccc(Cl)cc1[N+](=O)[O-])c1ccc(Cl)cc1 [Example 14, para-chlorobenzoylamidophosphoric acid di-para-chloro--ortho-nitroanilide] | 55% | 100% | 71% | 67% | 5% | 0% | 93% | 34% | 98% | 100% | 39% | 48% | 49% | 100% | 93% | 56% | 100% | 79% | 68% | 6% | solubility (Solubility (qualitative)): soluble in water, alcohols, acetone; Inhibition of growth of phytopathogenic fungi colonies, % Botrytis cinereae test laboratory (Botrytis cinereae [21]): 0%; Inhibition of growth of phytopathogenic fungi colonies, % Aspergillus fumigatis Tests laboratory (Aspergillus fumigatis [22]): 100%; Inhibition of growth of phytopathogenic fungi colonies, % Rhyzoctonia violaceae test laboratory (Rhyzoctonia violaceae [23]): 35%; Inhibition of growth of phytopathogenic fungi colonies, % Botrytis allii test laboratory (Botrytis allii [24]): 100%; Inhibition of growth of phytopathogenic fungi colonies, % Rhyzoctonia aderholdii test laboratory (Rhyzoctonia aderholdii [25]): 100%; Inhibition of growth of phytopathogenic fungi colonies, % Verticillium albo--atrum test laboratory (Verticillium albo-atrum [26]): 40%; Inhibition of growth of phytopathogenic fungi colonies, % Fusarium oxysporum test laboratory (Fusarium oxysporum [27]): 50%; Inhibition of growth of phytopathogenic fungi colonies, % Venturia inaequalis test laboratory (Venturia inaequalis [28]): 50%; Inhibition of growth of phytopathogenic fungi colonies, % Fusarium culmorum Tests laboratory (Fusarium culmorum [29]): 100%; Inhibition of growth of phytopathogenic fungi colonies, % Alternaria sobani test laboratory (Alternaria sobani [30]): 100% |
| O=C(NP(=O)(Nc1ccc(Cl)cc1Cl)Nc1ccc(Cl)cc1Cl)c1ccc(Br)cc1 [Example 13, para-bromobenzoylamidophosphoric acid di-2,4-dichloroanil-ide] | 74% | 100% | 93% | 62% | 34% | 0% | 50% | 47% | 100% | 100% | 46% | 43% | 44% | 93% | 100% | 75% | 100% | 100% | 64% | 35% | Inhibition of growth of phytopathogenic fungi colonies, % Botrytis cinereae test laboratory (Botrytis cinereae [21]): 0%; Inhibition of growth of phytopathogenic fungi colonies, % Aspergillus fumigatis Tests laboratory (Aspergillus fumigatis [22]): 53%; Inhibition of growth of phytopathogenic fungi colonies, % Rhyzoctonia violaceae test laboratory (Rhyzoctonia violaceae [23]): 46%; Inhibition of growth of phytopathogenic fungi colonies, % Botrytis allii test laboratory (Botrytis allii [24]): 100%; Inhibition of growth of phytopathogenic fungi colonies, % Rhyzoctonia aderholdii test laboratory (Rhyzoctonia aderholdii [25]): 100%; Inhibition of growth of phytopathogenic fungi colonies, % Verticillium albo--atrum test laboratory (Verticillium albo-atrum [26]): 47%; Inhibition of growth of phytopathogenic fungi colonies, % Fusarium oxysporum test laboratory (Fusarium oxysporum [27]): 44%; Inhibition of growth of phytopathogenic fungi colonies, % Venturia inaequalis test laboratory (Venturia inaequalis [28]): 45%; Inhibition of growth of phytopathogenic fungi colonies, % Fusarium culmorum Tests laboratory (Fusarium culmorum [29]): 100%; Inhibition of growth of phytopathogenic fungi colonies, % Alternaria sobani test laboratory (Alternaria sobani [30]): 100% |
